Test results from patent US10053465B2 (Incyte Corporation, priority 2015, dated 2018).

Columns and labels:
c-Mer = c-Mer (Homo sapiens (Human), UniProt Q12866); details: read-out: c-Mer IC50; HTRF, 60 min room temperature
Procedure: (§1) 0.1 ul test compounds dissolved in DMSO were transferred from compound plates to white 384-well assay plates (Greiner [sequence] plates). […] The plate was protected from light and incubated at room temperature for 60 min.

Tyro3 = Tyro3 (Homo sapiens (Human), UniProt Q06418); experiment: biochemical; details: read-out: Tyro3IC50
Procedure: as §1

Phospho-Axl = Phospho-Axl (Homo sapiens (Human), UniProt P30530); experiment: biochemical; details: HTRF, 60 min room temperature;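 further: test system is recombinant Axl protein that was first autophosphorylated with ATP and MgCl2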
Phospho-Axl, sequence (P30530 26-894): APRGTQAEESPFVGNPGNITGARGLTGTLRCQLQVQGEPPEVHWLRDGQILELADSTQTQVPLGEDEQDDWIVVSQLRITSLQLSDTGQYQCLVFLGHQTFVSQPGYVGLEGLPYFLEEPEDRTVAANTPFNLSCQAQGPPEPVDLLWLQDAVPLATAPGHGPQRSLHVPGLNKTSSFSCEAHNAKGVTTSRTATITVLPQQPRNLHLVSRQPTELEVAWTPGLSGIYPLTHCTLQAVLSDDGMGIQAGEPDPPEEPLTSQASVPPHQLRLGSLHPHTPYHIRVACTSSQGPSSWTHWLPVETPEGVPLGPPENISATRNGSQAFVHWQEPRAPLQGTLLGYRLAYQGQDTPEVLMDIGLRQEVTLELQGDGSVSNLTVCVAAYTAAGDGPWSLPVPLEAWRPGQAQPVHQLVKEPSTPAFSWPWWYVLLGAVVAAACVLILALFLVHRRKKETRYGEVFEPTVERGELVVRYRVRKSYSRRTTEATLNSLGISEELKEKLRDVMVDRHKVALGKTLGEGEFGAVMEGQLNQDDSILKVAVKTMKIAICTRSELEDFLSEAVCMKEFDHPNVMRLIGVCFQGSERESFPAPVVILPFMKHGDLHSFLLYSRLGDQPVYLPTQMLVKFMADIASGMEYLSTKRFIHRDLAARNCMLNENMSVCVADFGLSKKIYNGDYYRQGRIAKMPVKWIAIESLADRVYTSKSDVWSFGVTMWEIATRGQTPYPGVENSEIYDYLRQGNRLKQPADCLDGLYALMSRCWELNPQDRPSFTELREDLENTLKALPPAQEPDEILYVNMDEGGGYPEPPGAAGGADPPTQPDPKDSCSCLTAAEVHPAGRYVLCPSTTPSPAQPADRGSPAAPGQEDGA
Procedure: Autophosphorylation of Axl was carried out by incubating the recombinant Axl protein (Life Technologies, PV4275) in buffer containing 50 mM Tris, pH7.5, 0.2 mg/ml Axl, 5 mM ATP, 20 mM MgCl2 and 2 mM DTT at room temperature for 1 hour.
as §1

c-Mer, sequence (Q12866 21-999): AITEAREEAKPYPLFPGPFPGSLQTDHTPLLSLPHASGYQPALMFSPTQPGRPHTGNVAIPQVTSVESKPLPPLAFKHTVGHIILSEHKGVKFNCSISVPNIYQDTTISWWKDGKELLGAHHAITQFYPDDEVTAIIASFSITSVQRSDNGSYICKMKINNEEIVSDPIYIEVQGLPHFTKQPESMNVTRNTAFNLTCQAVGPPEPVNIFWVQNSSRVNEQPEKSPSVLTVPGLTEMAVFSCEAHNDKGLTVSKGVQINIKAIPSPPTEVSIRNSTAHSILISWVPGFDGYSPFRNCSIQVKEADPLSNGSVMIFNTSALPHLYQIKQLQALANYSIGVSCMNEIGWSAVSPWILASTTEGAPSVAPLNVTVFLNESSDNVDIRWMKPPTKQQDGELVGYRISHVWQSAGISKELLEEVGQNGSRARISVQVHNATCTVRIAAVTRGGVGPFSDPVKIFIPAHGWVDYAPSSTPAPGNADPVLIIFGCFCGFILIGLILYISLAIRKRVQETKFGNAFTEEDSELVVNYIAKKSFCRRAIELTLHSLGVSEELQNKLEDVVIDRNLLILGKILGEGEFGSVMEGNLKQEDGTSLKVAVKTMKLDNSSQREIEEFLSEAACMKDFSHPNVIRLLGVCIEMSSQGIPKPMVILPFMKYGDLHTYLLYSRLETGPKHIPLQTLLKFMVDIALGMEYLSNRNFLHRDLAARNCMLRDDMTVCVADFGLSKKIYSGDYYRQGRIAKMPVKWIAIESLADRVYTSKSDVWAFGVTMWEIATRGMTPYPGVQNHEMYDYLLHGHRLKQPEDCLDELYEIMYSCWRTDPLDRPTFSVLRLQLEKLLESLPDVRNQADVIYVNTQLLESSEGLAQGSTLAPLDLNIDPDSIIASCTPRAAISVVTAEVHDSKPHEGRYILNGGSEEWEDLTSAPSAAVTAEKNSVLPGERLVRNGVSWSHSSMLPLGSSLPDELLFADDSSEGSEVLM
Tyro3, sequence (Q06418 41-890): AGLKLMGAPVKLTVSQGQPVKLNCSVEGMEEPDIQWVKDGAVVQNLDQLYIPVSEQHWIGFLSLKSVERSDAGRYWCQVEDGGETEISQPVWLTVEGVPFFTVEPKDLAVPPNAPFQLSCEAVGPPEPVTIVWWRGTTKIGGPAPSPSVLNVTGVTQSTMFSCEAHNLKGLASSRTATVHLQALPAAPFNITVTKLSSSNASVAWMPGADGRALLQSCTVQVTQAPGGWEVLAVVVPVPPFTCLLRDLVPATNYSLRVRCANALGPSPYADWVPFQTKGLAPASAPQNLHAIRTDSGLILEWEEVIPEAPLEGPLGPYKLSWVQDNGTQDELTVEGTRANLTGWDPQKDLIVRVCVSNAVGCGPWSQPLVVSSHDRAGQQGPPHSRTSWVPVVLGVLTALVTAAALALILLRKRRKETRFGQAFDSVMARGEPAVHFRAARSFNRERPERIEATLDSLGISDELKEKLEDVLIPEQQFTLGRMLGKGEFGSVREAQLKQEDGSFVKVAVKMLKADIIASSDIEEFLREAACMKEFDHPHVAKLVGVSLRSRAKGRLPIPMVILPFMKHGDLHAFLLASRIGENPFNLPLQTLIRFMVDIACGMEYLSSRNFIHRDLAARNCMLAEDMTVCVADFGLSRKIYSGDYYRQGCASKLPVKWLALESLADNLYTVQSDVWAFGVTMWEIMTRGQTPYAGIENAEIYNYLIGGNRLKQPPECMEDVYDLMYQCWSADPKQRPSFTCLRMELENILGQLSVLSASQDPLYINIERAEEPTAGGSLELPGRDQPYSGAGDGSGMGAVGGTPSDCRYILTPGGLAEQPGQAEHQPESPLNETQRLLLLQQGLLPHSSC

SMILES	IC50 (c-Mer) [µM]	IC50 (Tyro3) [µM]	IC50 (Phospho-Axl) [µM]
NCC1(c2cccc(-c3ncnc4[nH]ccc34)c2)Cc2ccc(-c3ccncc3)cc2C1 (stereo not shown) [Example 78, (2-(3-(7H-Pyrrolo[2,3-d]pyrimidin-4-yl)phenyl)-5-(pyridin-4-yl)-2,3-dihydro-1H-inden-2-yl)methanamine]	> 3	–	–
N#CCC1(c2cccc(-c3ncnc4[nH]ccc34)c2)Cc2ccccc2C1 [Example 36, {2-[3-(7H-Pyrrolo[2,3-d]pyrimidin-4-yl)phenyl]-2,3-dihydro-1H-inden-2-yl}acetonitrile]	–	> 3	–
CN(C)C1CCN(c2ccc3c(c2)CC(CN)(c2cccc(-c4ncnc5[nH]ccc45)c2)C3)C1 (stereo not shown) [Example 52, 1-{2-(Aminomethyl)-2-[3-(7H-pyrrolo[2,3-d]pyrimidin-4-yl)phenyl]-2,3-dihydro-1H-inden-5-yl}-N,N-dimethylpyrrolidin-3-amine]	–	> 3	> 3
NCC1(c2cccc(-c3ncnc4[nH]ccc34)c2)Cc2ccc(CN3CCC3)cc2C1 (stereo not shown) [Example 46, (2-(3-(7H-Pyrrolo[2,3-d]pyrimidin-4-yl)phenyl)-5-(azetidin-1-ylmethyl)-2,3-dihydro-1H-inden-2-yl)methanamine]	> 3	–	–
NCC1(c2cccc(-c3ncnc4[nH]ccc34)c2)Cc2ccc(N3CCCC(O)C3)cc2C1 (stereo not shown) [Example 58, 1-{2-(Aminomethyl)-2-[3-(7H-pyrrolo[2,3-d]pyrimidin-4-yl)phenyl]-2,3-dihydro-1H-inden-5-yl}piperidin-3-ol]	> 3	< 0.5	–
Cc1cc2c(-c3cccc(C4(CN)Cc5ccccc5C4)c3)ncnc2[nH]1 [Example 93, 1-{2-[3-(6-Methyl-7H-pyrrolo[2,3-d]pyrimidin-4-yl)phenyl]-2,3-dihydro-1H-inden-2-yl}methanamine]	–	> 3	–
NCC1(c2cccc(-c3ncnc4[nH]ccc34)c2)Cc2ccc(N3CCCC3)cc2C1 (stereo not shown) [Example 61, 1-{5-Pyrrolidin-1-yl-2-[3-(7H-pyrrolo[2,3-d]pyrimidin-4-yl)phenyl]-2,3-dihydro-1H-inden-2-yl}methanamine]	–	> 3	–
NCC1(c2cccc(-c3ncnc4[nH]ccc34)c2)Cc2ccc(CNC3CCC3)cc2C1 (stereo not shown) [Example 41, N-((2-(3-(7H-Pyrrolo[2,3-d]pyrimidin-4-yl)phenyl)-2-(aminomethyl)-2,3-dihydro-1H-inden-5-yl)methyl)cyclobutanamine]	> 3	> 3	–
COCCCNc1ccc2c(c1)CC(CN)(c1cccc(-c3ncnc4[nH]ccc34)c1)C2 (stereo not shown) [Example 66, 2-(Aminomethyl)-N-(3-methoxypropyl)-2-[3-(7H-pyrrolo[2,3-d]pyrimidin-4-yl)phenyl]indan-5-amine]	–	> 3	–
NCC1(c2cccc(-c3ncnc4[nH]ccc34)c2)Cc2ccc(-c3ccc(F)cc3)cc2C1 (stereo not shown) [Example 71, 1-{5-(4-Fluorophenyl)-2-[3-(7H-pyrrolo[2,3-d]pyrimidin-4-yl)phenyl]-2,3-dihydro-1H-inden-2-yl}methanamine]	> 3	–	–
O=C(NCC1(c2cccc(-c3ncnc4[nH]ccc34)c2)Cc2ccccc2C1)N1CCOCC1 [Example 35, N-({2-[3-(7H-Pyrrolo[2,3-d]pyrimidin-4-yl)phenyl]-2,3-dihydro-1H-inden-2-yl}methyl)morpholine-4-carboxamide]	> 3	> 3	–
NCC1(c2cccc(-c3ncnc4[nH]ccc34)c2)Cc2ccc(CN3CC(F)C3)cc2C1 (stereo not shown) [Example 47, (2-(3-(7H-Pyrrolo[2,3-d]pyrimidin-4-yl)phenyl)-5-((3-fluoroazetidin-1-yl)methyl)-2,3-dihydro-1H-inden-2-yl)methanamine]	> 3	–	–
CNC1CCN(c2ccc3c(c2)CC(CN)(c2cccc(-c4ncnc5[nH]ccc45)c2)C3)C1 (stereo not shown) [Example 53, 1-{2-(Aminomethyl)-2-[3-(7H-pyrrolo[2,3-d]pyrimidin-4-yl)phenyl]-2,3-dihydro-1H-inden-5-yl}-N-methylpyrrolidin-3-amine]	–	> 3	> 3
NCC1(c2cccc(-c3ncnc4[nH]ccc34)c2)Cc2ccc(N3CCC(O)C3)cc2C1 (stereo not shown) [Example 54, 1-{2-(Aminomethyl)-2-[3-(7H-pyrrolo[2,3-d]pyrimidin-4-yl)phenyl]-2,3-dihydro-1H-inden-5-yl}pyrrolidin-3-ol]	–	> 3	–
NCC1(c2cccc(-c3ncnc4[nH]ccc34)c2)Cc2ccc(-c3cccc(F)c3)cc2C1 (stereo not shown) [Example 70, 1-{5-(3-Fluorophenyl)-2-[3-(7H-pyrrolo[2,3-d]pyrimidin-4-yl)phenyl]-2,3-dihydro-1H-inden-2-yl}methanamine]	> 3	–	–
COCC1(Nc2ccc3c(c2)CC(CN)(c2cccc(-c4ncnc5[nH]ccc45)c2)C3)CC1 (stereo not shown) [Example 67, 2-(Aminomethyl)-N-[1-(methoxymethyl)cyclopropyl]-2-[3-(7H-pyrrolo[2,3-d]pyrimidin-4-yl)phenyl]indan-5-amine]	–	> 3	–
NCC1(c2cccc(-c3ncnc4[nH]ccc34)c2)Cc2ccc(CN3CC[C@H](C(N)=O)C3)cc2C1 (stereo partly drawn) [Example 44, (3S)-1-((2-(3-(7H-Pyrrolo[2,3-d]pyrimidin-4-yl)phenyl)-2-(aminomethyl)-2,3-dihydro-1H-inden-5-yl)methyl)pyrrolidine-3-carboxamide]	> 3	–	–
NCC1(c2cccc(-c3ncnc4[nH]ccc34)c2)Cc2ccc(-c3ccc4nccn4c3)cc2C1 (stereo not shown) [Example 73, 1-{5-Imidazo[1,2-a]pyridin-6-yl-2-[3-(7H-pyrrolo[2,3-d]pyrimidin-4-yl)phenyl]-2,3-dihydro-1H-inden-2-yl}methanamine]	–	> 3	–
N#CC1CCN(c2ccc3c(c2)CC(CN)(c2cccc(-c4ncnc5[nH]ccc45)c2)C3)CC1 (stereo not shown) [Example 59, 1-{2-(Aminomethyl)-2-[3-(7H-pyrrolo[2,3-d]pyrimidin-4-yl)phenyl]-2,3-dihydro-1H-inden-5-yl}piperidine-4-carbonitrile]	> 3	–	–
NCC1(c2cccc(-c3ncnc4[nH]ccc34)c2)Cc2ccc(CNC3CC3)cc2C1 (stereo not shown) [Example 40, N-((2-(3-(7H-Pyrrolo[2,3-d]pyrimidin-4-yl)phenyl)-2-(aminomethyl)-2,3-dihydro-1H-inden-5-yl)methyl)cyclopropanamine]	> 3	> 3	–
NCC1(c2cccc(-c3ncnc4[nH]ccc34)c2)Cc2ccc(NC3CCOCC3)cc2C1 (stereo not shown) [Example 60, N-{2-(Aminomethyl)-2-[3-(7H-pyrrolo[2,3-d]pyrimidin-4-yl)phenyl]-2,3-dihydro-1H-inden-5-yl}tetrahydro-2H-pyran-4-amine]	> 3	–	–
N#Cc1ccc2c(c1)CC(CNC(=O)C1CC1)(c1cccc(-c3ncnc4[nH]ccc34)c1)C2 (stereo not shown) [Example 50, N-({5-Cyano-2-[3-(7H-pyrrolo[2,3-d]pyrimidin-4-yl)phenyl]-2,3-dihydro-1H-inden-2-yl}methyl)cyclopropanecarboxamide]	–	> 3	–
CC(C)C(=O)NCCC1(c2cccc(-c3ncnc4[nH]ccc34)c2)Cc2ccccc2C1 [Example 38, 2-Methyl-N-(2-{2-[3-(7H-pyrrolo[2,3-d]pyrimidin-4-yl)phenyl]-2,3-dihydro-1H-inden-2-yl}ethyl)propanamide]	–	> 3	–
NCC1(c2cccc(-c3ncnc4[nH]ccc34)c2)Cc2ccc(-c3cccnc3)cc2C1 (stereo not shown) [Example 77, (2-(3-(7H-Pyrrolo[2,3-d]pyrimidin-4-yl)phenyl)-5-(pyridin-3-yl)-2,3-dihydro-1H-inden-2-yl)methanamine]	> 3	< 0.5	–
